Laboratory results: US20230183193A1, “4-DIFLUOROMETHYL BENZOYL AMIDES WITH HERBICIDAL ACTION” (BAYER CROPSCIENCE AKTIENGESELLSCHAFT, priority 2017, published 2023)

What was measured:
Format in all cases: in vivo
Amaranthus retroflexus [1] = assay: Pre-emergence herbicidal action, AMARE; conditions: dosage 320 g/ha, scored visually after 3 weeks vs untreated controls
Procedure, shortened: (§1)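 Percent herbicidal activity rated by eye 3 weeks after pre-emergence soil-surface application, compared with untreated pots. Seeds sat under sandy loam; sprays carried 0.2% wetting agent.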

Matricaria inodora = assay: Pre-emergence herbicidal action, MATIN; conditions: dosage 320 g/ha, scored visually after 3 weeks vs untreated controls
Procedure, shortened: as §1

Cyperus serotinus = assay: Pre-emergence herbicidal action, CYPES; conditions: dosage 320 g/ha, scored visually after 3 weeks vs untreated controls
Procedure, shortened: as §1

Amaranthus retroflexus [2] = assay: Post-emergence herbicidal action, AMARE; conditions: 80 g/ha, Table D
Procedure, shortened: (§2)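 Greenhouse-grown plants were sprayed at the one-leaf stage, 2–3 weeks after sowing. Damage was scored visually after about 3 weeks against untreated controls, as % action (100% = dead, 0% = like control).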

Avena fatua [3] = assay: Pre-emergence herbicidal action, AVEFA; conditions: dosage 320 g/ha, scored visually after 3 weeks vs untreated controls
Procedure, shortened: as §1

Alopecurus myosuroides [4] = assay: Pre-emergence herbicidal action, ALOMY; conditions: dosage 320 g/ha, scored visually after 3 weeks vs untreated controls
Procedure, shortened: as §1

Abutilon theophrasti [5] = assay: Post-emergence herbicidal action, ABUTH; conditions: 80 g/ha, Table D
Procedure, shortened: as §2

ECHCG = assay: Post-emergence herbicidal action, ECHCG; conditions: 80 g/ha, Table C
Procedure, shortened: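 Weed and crop plants grown in sandy loam in the greenhouse, treated at the one-leaf stage 2–3 weeks after sowing. Damage scored visually after about 3 weeks vs untreated controls (0% = control, 100% = dead).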

Viola tricolor [6] = assay: Post-emergence herbicidal action, VIOTR; conditions: 80 g/ha, Table D
Procedure, shortened: as §2

Stellaria media [7] = assay: Pre-emergence herbicidal action, STEME; conditions: dosage 320 g/ha, scored visually after 3 weeks vs untreated controls
Procedure, shortened: as §1

Avena fatua [8] = assay: Post-emergence herbicidal action, AVEFA; conditions: 80 g/ha, Table C
Procedure, shortened: as §2

Alopecurus myosuroides [9] = assay: Post-emergence herbicidal action, ALOMY; conditions: 80 g/ha, Table C
Procedure, shortened: as §2

Setaria viridis [10] = assay: Pre-emergence herbicidal action, SETVI; conditions: dosage 320 g/ha, scored visually after 3 weeks vs untreated controls
Procedure, shortened: as §1

Pharbitis purpureum = assay: Post-emergence herbicidal action, PHBPU; conditions: 80 g/ha, Table D
Procedure, shortened: as §2

Viola tricolor [11] = assay: Pre-emergence herbicidal action, VIOTR; conditions: dosage 320 g/ha, scored visually after 3 weeks vs untreated controls
Procedure, shortened: as §1

Abutilon theophrasti [12] = assay: Pre-emergence herbicidal action, ABUTH; conditions: dosage 320 g/ha, scored visually after 3 weeks vs untreated controls
Procedure, shortened: as §1

Setaria viridis [13] = assay: Post-emergence herbicidal action, SETVI; conditions: 80 g/ha, Table C
Procedure, shortened: as §2

Stellaria media [14] = assay: Post-emergence herbicidal action, STEME; conditions: 80 g/ha, Table D
Procedure, shortened: as §2

CCc1c(C(=O)Nc2nnnn2CC)ccc(C(F)F)c1SC [Example 2-13]
80%: herbicidal activity ALOMY (Alopecurus myosuroides [9])
100%: herbicidal activity AMARE (Amaranthus retroflexus [1]) | herbicidal activity MATIN (Matricaria inodora) | herbicidal activity CYPES (Cyperus serotinus) | herbicidal activity AMARE (Amaranthus retroflexus [2]) | herbicidal activity AVEFA (Avena fatua [3]) | herbicidal activity ALOMY (Alopecurus myosuroides [4]) | herbicidal activity ABUTH (Abutilon theophrasti [5]) | herbicidal activity VIOTR (Viola tricolor [6]) | Herbicidal activity STEME (Stellaria media [7]) | herbicidal activity SETVI (Setaria viridis [10]) | Herbicidal activity PHBPU (Pharbitis purpureum) | herbicidal activity VIOTR (Viola tricolor [11]) | herbicidal activity ABUTH (Abutilon theophrasti [12]) | herbicidal activity SETVI (Setaria viridis [13]) | Herbicidal activity STEME (Stellaria media [14])
90%: Herbicidal activity ECHCG (ECHCG) | herbicidal activity AVEFA (Avena fatua [8])

CC[S+]([O-])c1c(C(F)F)ccc(C(=O)Nc2nnnn2C)c1C (stereo not drawn) [Example 1-5]
90%: herbicidal activity ABUTH (Abutilon theophrasti [5]) | Herbicidal activity STEME (Stellaria media [7])
100%: herbicidal activity AMARE (Amaranthus retroflexus [1]) | herbicidal activity MATIN (Matricaria inodora) | herbicidal activity CYPES (Cyperus serotinus) | herbicidal activity AMARE (Amaranthus retroflexus [2]) | herbicidal activity AVEFA (Avena fatua [3]) | herbicidal activity ALOMY (Alopecurus myosuroides [4]) | Herbicidal activity ECHCG (ECHCG) | herbicidal activity VIOTR (Viola tricolor [6]) | herbicidal activity AVEFA (Avena fatua [8]) | herbicidal activity ALOMY (Alopecurus myosuroides [9]) | herbicidal activity SETVI (Setaria viridis [10]) | Herbicidal activity PHBPU (Pharbitis purpureum) | herbicidal activity VIOTR (Viola tricolor [11]) | herbicidal activity ABUTH (Abutilon theophrasti [12]) | herbicidal activity SETVI (Setaria viridis [13]) | Herbicidal activity STEME (Stellaria media [14])

CCSc1c(C(F)F)ccc(C(=O)Nc2nnnn2CC)c1Br [Example 2-64]
100%: herbicidal activity AMARE (Amaranthus retroflexus [1]) | herbicidal activity MATIN (Matricaria inodora) | herbicidal activity CYPES (Cyperus serotinus) | herbicidal activity AMARE (Amaranthus retroflexus [2]) | herbicidal activity AVEFA (Avena fatua [3]) | herbicidal activity ALOMY (Alopecurus myosuroides [4]) | herbicidal activity ABUTH (Abutilon theophrasti [5]) | Herbicidal activity ECHCG (ECHCG) | herbicidal activity VIOTR (Viola tricolor [6]) | Herbicidal activity STEME (Stellaria media [7]) | herbicidal activity AVEFA (Avena fatua [8]) | herbicidal activity ALOMY (Alopecurus myosuroides [9]) | herbicidal activity SETVI (Setaria viridis [10]) | Herbicidal activity PHBPU (Pharbitis purpureum) | herbicidal activity VIOTR (Viola tricolor [11]) | herbicidal activity ABUTH (Abutilon theophrasti [12]) | herbicidal activity SETVI (Setaria viridis [13]) | Herbicidal activity STEME (Stellaria media [14])

CCn1nnnc1NC(=O)c1ccc(C(F)F)c(S(=O)(=O)CC)c1I [Example 2-78]
90%: Herbicidal activity ECHCG (ECHCG) | herbicidal activity VIOTR (Viola tricolor [6]) | herbicidal activity AVEFA (Avena fatua [8]) | Herbicidal activity PHBPU (Pharbitis purpureum) | herbicidal activity SETVI (Setaria viridis [13])
80%: herbicidal activity ABUTH (Abutilon theophrasti [5]) | herbicidal activity ALOMY (Alopecurus myosuroides [9])
100%: herbicidal activity AMARE (Amaranthus retroflexus [1]) | herbicidal activity MATIN (Matricaria inodora) | herbicidal activity CYPES (Cyperus serotinus) | herbicidal activity AMARE (Amaranthus retroflexus [2]) | herbicidal activity AVEFA (Avena fatua [3]) | herbicidal activity ALOMY (Alopecurus myosuroides [4]) | Herbicidal activity STEME (Stellaria media [7]) | herbicidal activity SETVI (Setaria viridis [10]) | herbicidal activity VIOTR (Viola tricolor [11]) | herbicidal activity ABUTH (Abutilon theophrasti [12]) | Herbicidal activity STEME (Stellaria media [14])

CCc1c(C(=O)Nc2nnc(C)o2)ccc(C(F)F)c1S(=O)(=O)CC [Example 7-16]
90%: Herbicidal activity ECHCG (ECHCG) | herbicidal activity AVEFA (Avena fatua [8]) | herbicidal activity ALOMY (Alopecurus myosuroides [9]) | Herbicidal activity PHBPU (Pharbitis purpureum)
100%: herbicidal activity AMARE (Amaranthus retroflexus [1]) | herbicidal activity MATIN (Matricaria inodora) | herbicidal activity CYPES (Cyperus serotinus) | herbicidal activity AMARE (Amaranthus retroflexus [2]) | herbicidal activity AVEFA (Avena fatua [3]) | herbicidal activity ALOMY (Alopecurus myosuroides [4]) | herbicidal activity ABUTH (Abutilon theophrasti [5]) | herbicidal activity VIOTR (Viola tricolor [6]) | Herbicidal activity STEME (Stellaria media [7]) | herbicidal activity SETVI (Setaria viridis [10]) | herbicidal activity VIOTR (Viola tricolor [11]) | herbicidal activity ABUTH (Abutilon theophrasti [12]) | herbicidal activity SETVI (Setaria viridis [13]) | Herbicidal activity STEME (Stellaria media [14])

CSc1c(C(F)F)ccc(C(=O)Nc2nnnn2C)c1C1CC1 [Example 1-25]
100%: herbicidal activity AMARE (Amaranthus retroflexus [1]) | herbicidal activity MATIN (Matricaria inodora) | herbicidal activity CYPES (Cyperus serotinus) | herbicidal activity AMARE (Amaranthus retroflexus [2]) | herbicidal activity AVEFA (Avena fatua [3]) | herbicidal activity ALOMY (Alopecurus myosuroides [4]) | herbicidal activity ABUTH (Abutilon theophrasti [5]) | Herbicidal activity ECHCG (ECHCG) | herbicidal activity VIOTR (Viola tricolor [6]) | Herbicidal activity STEME (Stellaria media [7]) | herbicidal activity AVEFA (Avena fatua [8]) | herbicidal activity ALOMY (Alopecurus myosuroides [9]) | herbicidal activity SETVI (Setaria viridis [10]) | Herbicidal activity PHBPU (Pharbitis purpureum) | herbicidal activity VIOTR (Viola tricolor [11]) | herbicidal activity ABUTH (Abutilon theophrasti [12]) | herbicidal activity SETVI (Setaria viridis [13]) | Herbicidal activity STEME (Stellaria media [14])

CCc1c(C(=O)Nc2nnc(C)o2)ccc(C(F)F)c1[S+](C)[O-] (stereo not drawn) [Example 7-12]
90%: herbicidal activity AVEFA (Avena fatua [8]) | herbicidal activity ALOMY (Alopecurus myosuroides [9]) | Herbicidal activity PHBPU (Pharbitis purpureum) | herbicidal activity SETVI (Setaria viridis [13])
100%: herbicidal activity AMARE (Amaranthus retroflexus [1]) | herbicidal activity MATIN (Matricaria inodora) | herbicidal activity CYPES (Cyperus serotinus) | herbicidal activity AMARE (Amaranthus retroflexus [2]) | herbicidal activity AVEFA (Avena fatua [3]) | herbicidal activity ALOMY (Alopecurus myosuroides [4]) | herbicidal activity ABUTH (Abutilon theophrasti [5]) | Herbicidal activity ECHCG (ECHCG) | herbicidal activity VIOTR (Viola tricolor [6]) | Herbicidal activity STEME (Stellaria media [7]) | herbicidal activity SETVI (Setaria viridis [10]) | herbicidal activity VIOTR (Viola tricolor [11]) | herbicidal activity ABUTH (Abutilon theophrasti [12]) | Herbicidal activity STEME (Stellaria media [14])

Cn1nnnc1NC(=O)c1ccc(C(F)F)c([S+](C)[O-])c1Br (stereo not drawn) [Example 1-62]
100%: herbicidal activity AMARE (Amaranthus retroflexus [1]) | herbicidal activity MATIN (Matricaria inodora) | herbicidal activity CYPES (Cyperus serotinus) | herbicidal activity AMARE (Amaranthus retroflexus [2]) | herbicidal activity AVEFA (Avena fatua [3]) | herbicidal activity ALOMY (Alopecurus myosuroides [4]) | herbicidal activity ABUTH (Abutilon theophrasti [5]) | Herbicidal activity ECHCG (ECHCG) | herbicidal activity VIOTR (Viola tricolor [6]) | Herbicidal activity STEME (Stellaria media [7]) | herbicidal activity AVEFA (Avena fatua [8]) | herbicidal activity ALOMY (Alopecurus myosuroides [9]) | herbicidal activity SETVI (Setaria viridis [10]) | Herbicidal activity PHBPU (Pharbitis purpureum) | herbicidal activity VIOTR (Viola tricolor [11]) | herbicidal activity ABUTH (Abutilon theophrasti [12]) | herbicidal activity SETVI (Setaria viridis [13]) | Herbicidal activity STEME (Stellaria media [14])

CCc1c(C(=O)Nc2nnnn2CC)ccc(C(F)F)c1S(C)(=O)=O [Example 2-15]
100%: herbicidal activity AMARE (Amaranthus retroflexus [1]) | herbicidal activity MATIN (Matricaria inodora) | herbicidal activity CYPES (Cyperus serotinus) | herbicidal activity AMARE (Amaranthus retroflexus [2]) | herbicidal activity AVEFA (Avena fatua [3]) | herbicidal activity ALOMY (Alopecurus myosuroides [4]) | herbicidal activity ABUTH (Abutilon theophrasti [5]) | herbicidal activity VIOTR (Viola tricolor [6]) | Herbicidal activity STEME (Stellaria media [7]) | herbicidal activity AVEFA (Avena fatua [8]) | herbicidal activity SETVI (Setaria viridis [10]) | herbicidal activity VIOTR (Viola tricolor [11]) | herbicidal activity ABUTH (Abutilon theophrasti [12]) | herbicidal activity SETVI (Setaria viridis [13]) | Herbicidal activity STEME (Stellaria media [14])
90%: Herbicidal activity ECHCG (ECHCG)
80%: herbicidal activity ALOMY (Alopecurus myosuroides [9]) | Herbicidal activity PHBPU (Pharbitis purpureum)

CSc1c(C(F)F)ccc(C(=O)Nc2ncnn2C)c1Br [Example 4-61]
90%: herbicidal activity CYPES (Cyperus serotinus) | herbicidal activity AVEFA (Avena fatua [3]) | Herbicidal activity STEME (Stellaria media [7])
100%: herbicidal activity AMARE (Amaranthus retroflexus [1]) | herbicidal activity MATIN (Matricaria inodora) | herbicidal activity AMARE (Amaranthus retroflexus [2]) | herbicidal activity ALOMY (Alopecurus myosuroides [4]) | herbicidal activity ABUTH (Abutilon theophrasti [5]) | Herbicidal activity ECHCG (ECHCG) | herbicidal activity VIOTR (Viola tricolor [6]) | herbicidal activity AVEFA (Avena fatua [8]) | herbicidal activity ALOMY (Alopecurus myosuroides [9]) | herbicidal activity SETVI (Setaria viridis [10]) | Herbicidal activity PHBPU (Pharbitis purpureum) | herbicidal activity VIOTR (Viola tricolor [11]) | herbicidal activity ABUTH (Abutilon theophrasti [12]) | herbicidal activity SETVI (Setaria viridis [13]) | Herbicidal activity STEME (Stellaria media [14])

CCn1nnnc1NC(=O)c1ccc(C(F)F)c([S+]([O-])CC)c1C1CC1 (stereo not drawn) [Example 2-29]
100%: herbicidal activity AMARE (Amaranthus retroflexus [1]) | herbicidal activity MATIN (Matricaria inodora) | herbicidal activity AMARE (Amaranthus retroflexus [2]) | herbicidal activity AVEFA (Avena fatua [3]) | herbicidal activity ALOMY (Alopecurus myosuroides [4]) | herbicidal activity ABUTH (Abutilon theophrasti [5]) | Herbicidal activity ECHCG (ECHCG) | herbicidal activity VIOTR (Viola tricolor [6]) | Herbicidal activity STEME (Stellaria media [7]) | herbicidal activity ALOMY (Alopecurus myosuroides [9]) | herbicidal activity SETVI (Setaria viridis [10]) | herbicidal activity VIOTR (Viola tricolor [11]) | herbicidal activity ABUTH (Abutilon theophrasti [12]) | herbicidal activity SETVI (Setaria viridis [13]) | Herbicidal activity STEME (Stellaria media [14])
90%: herbicidal activity CYPES (Cyperus serotinus) | herbicidal activity AVEFA (Avena fatua [8]) | Herbicidal activity PHBPU (Pharbitis purpureum)
